Source: patent publication US20220257581A1, “Treatment of Cancer” (Sumitomo Dainippon Pharma Oncology, Inc., priority 2019, published 2022)

Key:
[1] = tested on: patients with newly diagnosed, previously untreated AML; test: Phase 1 dose-escalation study of alvocidib followed by 7+3: response assessments (ELN Guidelines); format: in vivo, human; details: for Overall CR, n (%): Response Evaluable Population
Description: Methods: Study Population. This was a Phase 1, open-label, multicenter, dose-escalation study of alvocidib followed by cytarabine/daunorubicin (7+3) in patients with AML (NCT03298984). Patients aged 18-65 years with newly diagnosed, previously untreated AML and pathological confirmation of bone marrow (BM) blasts 20% were eligible. Key inclusion criteria included: Eastern Cooperative Oncology Group (ECOG) performance status (PS)≤2, serum creatinine level <1.8 mg/dL, alanine aminotransferase (ALT) and aspartate aminotransferase (AST)<5 times upper limit of normal (ULN), total bilirubin <2.0 mg/dL, and left ventricular ejection fraction (EF) >45%. Patients were excluded if they had previous treatment for AML (with the exception of hydroxyurea), and were diagnosed with acute promyelocytic leukemia (APL-M3) or core-binding factor AML ((CBF-AML: t(8;21); inv(16); t(16;16)). All patients provided written informed consent. This study was conducted as per the Declaration of Helsinki after approval by ethics committee of each participating center.
Treatment Plan: Induction.
Consolidation. Patients who achieved a complete remission (CR) received 2 to 4 cycles of consolidation therapy with high dose cytarabine (HiDAC) 3 gm/m^2 IV every 12 hours on days 1, 3 and 5 upon full hematological recovery (absolute neutrophil count ≥[…] and platelets >[…]). HiDAC was permitted to be dose reduced to 1.5 gm/m^2 IV every 12 hours on days 1, 3 and 5 in those >60 years. Allogeneic stem cell transplantation was permitted after induction per standard of care but was recommended after at least 1 cycle of HiDAC consolidation in those who achieved CR.
Response Assessments. Response assessment was performed by a bone marrow aspirate and biopsy at the time of full hematologic recovery or by day 50 and day 60 of 1 versus 2 induction cycles, respectively. Response to therapy was assessed by standardized ELN Guidelines. In those who achieved CR and received consolidation therapy, a bone marrow aspirate and biopsy was performed after cycle 2 of HiDAC, after completion of consolidation therapy, and at any suspicion of relapse.

[2] = tested on: patients with newly diagnosed, previously untreated AML; test: Minimal residual disease (MRD) analysis of bone marrow by flow cytometry in the Phase 1 study; format: in vivo, human
Description: Minimal Residual Disease (MRD) Analysis. MRD was assessed in bone marrow samples at the time of response by a uniform central assay (Hematologics, Inc.) in an exploratory cohort, as has been previously described. Samples were first incubated with antibodies for 20 minutes at room temperature. Red blood cells were then lysed at 37° C. using buffered NH4Cl for 5 minutes, followed by centrifugation at 300 g. Cells were subsequently washed with PBS supplemented with 2% FCS and resuspended in 1% paraformaldehyde. Samples were analyzed on a FACSCalibur™ flow cytometer (Becton Dickinson Biosciences). 200,000 events were analyzed for each sample. Data analysis was performed with WinList™ software (Verity Software House). Two independent reviewers viewed each sample to arrive at a consensus on the data.

[3] = tested on: patients with newly diagnosed, previously untreated AML; test: Kaplan-Meier time-to-event analyses and clinical outcomes of the Phase 1 study; format: in vivo, human
Text: Statistical Analysis. […] Intra-patient dose escalation was not permitted. […] Database lock was on Apr. 30, 2020.

[4] = tested on: patients with newly diagnosed, previously untreated AML
Description: Treatment Plan: Induction. Alvocidib was dose-escalated starting at dose level 1: 20 mg/m^2 30-minute IV bolus followed by 30 mg/m^2 IV infusion over 4 hours on Days 1-3 (FIG. 1). Daunorubicin 60 mg/m^2 IV bolus over 15 minutes was initiated on days 5-7, and cytarabine 100 mg/m^2/day IV continuous 24-hour infusion was administered on Days 5-11. A bone marrow aspirate and biopsy was performed on day 14 (+/−3 days) and patients with residual leukemia (>5% bone marrow blasts and >10% cellularity) were recommended to receive a second induction cycle with alvocidib on days 1-3 (same dose level as induction) followed by daunorubicin 45 mg/m^2/day IV over 15 minutes on days 5 and 6 and cytarabine 100 mg/m^2/day IV continuous infusion over days 5-9 (“5+2”).
Statistical Analysis. Alvocidib dose was escalated using a 3+3 design (FIG. 1). Successive cohorts of patients (3-6 per cohort) were treated with escalated doses until the maximal tolerated dose (MTD) was established. Intra-patient dose escalation was not permitted. Descriptive analysis was performed for the safety and efficacy endpoints. MTD for alvocidib was estimated by the highest alvocidib dose for which the incidence of DLT during Cycle 1 was less than 33% in combination with 7+3. Kaplan-Meier time-to-event analyses were performed on overall survival (OS), relapse-free survival and duration of remission. […]

MDS blasts = test: MCL-1 dependency assay of MDS blasts after azacitidine pre-treatment; format: cell-based, human; details: MCL-1 dependency cut-off of 40%
Description: CD13, CD33, CD34, CD45, CD3 and CD20 were used as markers to identify MDS blasts, and to perform MCL-1 dependency analyses. MDS blasts were positive for CD13, CD33 and CD34, dim for CD45 and negative for CD3 and CD20.
On day 1 of the MCL-1 dependency assay, 5×10^4-1×10^5 HS-5 feeder cells were plated into a 6-well plate, and allowed to attached overnight. HS-5 feeder cells improve viability of frozen MDS bone marrow mononuclear cells (BMMCs) after thawing. On day 2 of the assay, MDS BMMCs were thawed, and divided into three treatment groups corresponding to treatment with DMSO, treatment with 1 μM azacitidine or treatment with 2.5 μM azacitidine. On day 4, after a 48-hour treatment period, MCL-1 dependency of MDS blasts, lymphocytes and monocytes were separately assessed.

[5] = Response Evaluable Population (N = 31), alvocidib followed by 7+3

## CN1CC[C@H](c2c(O)cc(O)c3c(=O)cc(-c4ccccc4Cl)oc23)[C@H](O)C1 [alvocidib, 2-(2-chlorophenyl)-5,7-dihydroxy-8-[(3S,4R)-3-hydroxy-1-methylpiperidin-4-yl]chromen-4-one]
[1]; 3 patients re-induced with alvocidib and 5+2
  patients achieving CR after re-induction therapy: None
[1]; AML with mutated chromatin, RNA-splicing genes, or both (9/10)
  CR rate: 90%
[1]; MRD exploratory cohort of 12 patients at recommended phase 2 dose
  patients achieving CR: 75%
[1]; [5]
  CR, n (%): 22 (71.0%) n (%)
  CRi (%): 0%
  Overall CR/CRi, n (%): 22 (71.0%) n (%)
  Overall Response Rate (CR + CRi + PR): 24 (77.4%) n (%)
  PR, n (%): 2 (6.5%) n (%)
[1]; ELN-risk Adverse (n = 15)
  Overall CR, n (%): 9 (60.0%) n (%)
[1]; ELN-risk Favorable (n = 9)
  Overall CR, n (%): 8 (88.9%) n (%)
[1]; ELN-risk Intermediate (n = 7)
  Overall CR, n (%): 5 (71.4%) n (%)
[1]; SWOG cytogenetics risk Favorable (n = 0)
  Overall CR, n (%): 0 (0.0%) n (%)
[1]; SWOG cytogenetics risk Intermediate (n = 19)
  Overall CR, n (%): 15 (78.9%) n (%)
[1]; SWOG cytogenetics risk Unfavorable (n = 12)
  Overall CR, n (%): 7 (58.3%) n (%)
[1]; SWOG cytogenetics risk Unknown (n = 0)
  Overall CR, n (%): 0 (0.0%) n (%)
[1]; subgroup AML with MRC (n = 11)
  Overall CR, n (%): 6 (54.5%) n (%)
[1]; subgroup Age <60 years (n = 21)
  Overall CR, n (%): 16 (76.2%) n (%)
[1]; subgroup Age ≥60 years (n = 10)
  Overall CR, n (%): 6 (60.0%) n (%)
[1]; subgroup At MTD (n = 23)
  Overall CR, n (%): 15 (65.2%) n (%)
[1]; subgroup Secondary AML (n = 5)
  Overall CR, n (%): 3 (60.0%) n (%)
[1]; all enrolled patients
  patients with no evidence of residual leukemia on day 14 assessment: 91%
[1]; all enrolled patients (n=32)
  CR rate: 69%
  overall response rate (ORR: CR+partial remission (PR)): 75%
[1]; all enrolled, ELN adverse-risk (9 of 16)
  Overall CR rate: 56%
[1]; all enrolled, ELN favorable-risk (8 of 9)
  Overall CR rate: 89%
[1]; all enrolled, ELN intermediate-risk (5 of 7)
  Overall CR rate: 71%
[1]; dose level 1 (3 of 3), all ELN favorable-risk
  CR rate: 100%
[1]; genomic signature specific for secondary AML (ASXL1, BCOR, EZH2, SF3B1, SRSF2, STAG2, U2AF1, or ZRSR2) (11/12)
  CR rate: 92%
[1]; patients with ASXL1 mutations (5/6)
  Overall CR rate: 83%
[1]; patients with MCL-1 scores greater than 30% (10/12)
  CR rate: 83%
[1]; patients with MCL-1 scores less than 30% (10/15)
  CR rate: 67%
[1]; patients with NPM1 mutations (8/10)
  CR rate: 80%
[1]; patients with RUNX1 mutations (4/5)
  Overall CR rate: 80%
[1]; patients with a TP53 mutation (1/3)
  patients achieving CR: 33%
[1]; recommended phase 2 dose level (15/23)
  patients achieving CR: 65%
[1]; response-evaluable patients
  CR rate: 71%
  ORR: 77%
[2]; 22 CR patients, standardized flow cytometry and/or institutional standard assessment
  MRD-negative among patients who achieved CR: 50%
[2]; ELN adverse-risk disease (4/9)
  MRD-negative among patients who achieved CR: 44%
[2]; MRD exploratory cohort, 8 of 12 patients
  MRD-negative CR, overall: 67%
[2]; MRD exploratory cohort, centralized flow cytometry (8/9)
  MRD-negative among CR patients: 89%
[2]; MRD exploratory cohort, ELN adverse-risk patients (3 out of 4)
  MRD-negative CR: 75%
[2]; MRD exploratory cohort, one patient with adverse-risk disease
  CR with evidence of MRD: 11%
[3]; 7 relapsed CR patients, range: 1.4-13.6 months
  median duration of CR: 8.6 months
[3]; 32 patients, 95% CI: 2.0, NA
  Median EFS: 10.0 months
[3]; 32 patients, 95% CI: 41.9, 77.4%
  Landmark 1-year OS: 62.4%
[3]; 32 patients, median follow-up 9.2 months
  median OS: not reached
[3]; 95% CI: 15.4, 53.8%
  Landmark 2-year EFS: 34.1%
[3]; 95% CI: 21.9, 59.1%
  Landmark 1-year EFS: 40.9%
[3]; 95% CI: 31.7, 79.1%
  Landmark 1-year RFS: 59.5%
[3]; of the 22 CR patients
  relapsed to date: 32%
[3]; patients who achieved CR without MRD
  remain in CR: 82%
[3]; patients who achieved CR without evidence of MRD
  relapsed: 18%
[3]; time from CR/CRi up to relapse or death
  median RFS: not reached
[4]; IV bolus/IV infusion on Days 1-3, in combination with 7+3
  MTD (maximum tolerated dose) of alvocidib: (30/60 mg/m^2)
[4]; in vivo
  safety and feasibility: safe, feasible

## Nc1ncn([C@@H]2O[C@H](CO)[C@@H](O)[C@H]2O)c(=O)n1 [azacitidine]
MDS blasts; 1 μM or 2.5 μM azacitidine, 48-hour treatment
  patient samples with an increase in MCL-1 dependency: 10/12
MDS blasts; patient sample MDS1060
  effect on MCL-1 dependency status of blasts: rendered MCL-1-independent blasts MCL-1 dependent
